Structures can show the parent of a compound that is named as a salt. Where two headings read alike, the source gives them in different places.
Key:
[1] = molecular target: Human RET kinase cytoplasmic domain (Homo sapiens (Human), UniProt P07949); assay: RET kinase enzymatic assay; assay type: biochemical; details: human RET kinase enzymatic assay (Table 2)
Procedure: RET Kinase Enzymatic Assay
GST-RET was purified using glutathione sepharose chromatography. The RET kinase enzymatic assay was performed in a total volume of 10 uL with increasing concentrations of RET kinase inhibitor as a singlet in a 384 well format as follows: RET inhibitor compound plates are prepared by adding 100 nL of RET inhibitor at different concentrations to a 384-well plate. 5 μL/well of a 2× enzyme mix (50 mM HEPES (4-(2-hydroxyethyl)-1-piperazineethanesulfonic acid); 1 mM CHAPS (3[(3-cholamidopropyl)dimethylammonio]-1-propanesulfonate); 0.1 mg/mL BSA (bovine serum albumin); 1 mM DTT (dithiothreitol); 0.2 nM RET kinase) was added to the 384-well plate and incubated for 30 minutes at 23° C.

[2] = molecular target: constitutive RET kinase phosphorylation in TT cells (Homo sapiens (Human), UniProt P07949, C634W); assay: RET kinase cell-based mechanistic assay
Procedure: RET Kinase Cell-Based Mechanistic Assay
The potency of the compound of the invention was tested for its ability to inhibit constitutive RET kinase phosphorylation in cell-based assay. […] 1.0E5 TT cells/well were plated in a 96-well cell culture plate and allowed to adhere overnight. […] IC50s were fitted using GraphPad Prism to a sigmoidal dose response.

TT cells = assay: RET kinase cell-based proliferation assay; design: species or system human; details: 192 h, read-out: RET IC50
From the text: RET Kinase Cell-Based Proliferation Assay

[3] = human RET kinase cell-based proliferation assay, TT cells, eight days (Table 4)

Chain of constitutive RET kinase phosphorylation in TT cells (P07949 29-1114 C634W): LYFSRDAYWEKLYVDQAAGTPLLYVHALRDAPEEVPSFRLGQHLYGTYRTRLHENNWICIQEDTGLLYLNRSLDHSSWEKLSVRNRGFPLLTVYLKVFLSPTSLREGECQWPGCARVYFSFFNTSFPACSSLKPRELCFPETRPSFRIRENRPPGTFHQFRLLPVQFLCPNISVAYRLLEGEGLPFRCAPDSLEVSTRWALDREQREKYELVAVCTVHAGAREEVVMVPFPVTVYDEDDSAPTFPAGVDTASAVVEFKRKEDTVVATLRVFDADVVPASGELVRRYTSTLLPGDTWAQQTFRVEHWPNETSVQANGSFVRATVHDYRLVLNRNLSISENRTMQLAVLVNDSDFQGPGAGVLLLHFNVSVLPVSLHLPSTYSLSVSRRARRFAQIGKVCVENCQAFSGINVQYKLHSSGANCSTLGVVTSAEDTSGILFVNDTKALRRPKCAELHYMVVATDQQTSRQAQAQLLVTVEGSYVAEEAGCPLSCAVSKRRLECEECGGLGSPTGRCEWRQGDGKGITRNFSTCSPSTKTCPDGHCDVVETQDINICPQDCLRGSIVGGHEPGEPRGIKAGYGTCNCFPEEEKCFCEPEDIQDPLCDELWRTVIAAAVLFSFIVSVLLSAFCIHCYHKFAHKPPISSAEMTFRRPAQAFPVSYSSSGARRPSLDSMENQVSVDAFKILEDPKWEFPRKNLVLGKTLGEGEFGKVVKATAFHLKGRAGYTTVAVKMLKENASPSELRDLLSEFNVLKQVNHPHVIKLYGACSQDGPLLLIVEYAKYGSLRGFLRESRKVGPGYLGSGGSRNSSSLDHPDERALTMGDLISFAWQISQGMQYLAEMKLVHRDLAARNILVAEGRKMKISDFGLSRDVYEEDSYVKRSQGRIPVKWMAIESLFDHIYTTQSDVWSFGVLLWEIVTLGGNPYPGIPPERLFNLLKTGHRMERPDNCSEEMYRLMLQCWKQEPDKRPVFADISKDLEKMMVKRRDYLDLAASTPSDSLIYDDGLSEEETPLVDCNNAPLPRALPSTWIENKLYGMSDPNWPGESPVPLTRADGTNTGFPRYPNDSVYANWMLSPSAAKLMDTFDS
Chain of Human RET kinase cytoplasmic domain (P07949 658-1114): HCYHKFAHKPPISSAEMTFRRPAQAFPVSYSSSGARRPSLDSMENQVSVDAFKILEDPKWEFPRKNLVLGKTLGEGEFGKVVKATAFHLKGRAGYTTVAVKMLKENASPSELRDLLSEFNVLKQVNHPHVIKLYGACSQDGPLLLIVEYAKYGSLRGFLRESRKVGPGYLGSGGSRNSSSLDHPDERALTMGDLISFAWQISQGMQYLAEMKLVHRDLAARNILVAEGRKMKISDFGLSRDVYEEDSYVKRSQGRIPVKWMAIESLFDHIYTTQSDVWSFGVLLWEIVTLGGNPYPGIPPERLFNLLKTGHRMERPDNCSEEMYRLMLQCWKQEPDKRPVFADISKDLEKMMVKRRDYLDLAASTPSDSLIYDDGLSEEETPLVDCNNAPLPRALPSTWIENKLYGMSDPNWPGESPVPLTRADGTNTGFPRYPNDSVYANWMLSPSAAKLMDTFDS

Compound | IC50 [1] [µM] | IC50 [2] [µM] | IC50 (TT cells; Homo sapiens, TT) [µM] | IC50 (TT cells; [3]) [µM]
CCOc1ncc(NC(=O)Cc2ccc(-c3c[nH]c(=O)c(OCC)c3)cc2F)cc1C(F)(F)F [Example 2, N-(6-Ethoxy-5-(trifluoromethyl)pyridin-3-yl)-2-(4-(5-ethoxy-6-oxo-1,6-dihydropyridin-3-yl)-2-fluorophenyl)acetamide hydrochloride] | < 0.1 | – | – | –
CCOc1cc(-c2ccc(CC(=O)Nc3ccc(CC(C)(C)CO)c(C(F)(F)F)c3)cc2F)c[nH]c1=O [Example 6, 2-(4-(5-Ethoxy-6-oxo-1,6-dihydropyridin-3-yl)-3-fluorophenyl)-N-(4-(3-hydroxy-2,2-dimethylpropyl)-3-(trifluoromethyl)phenyl)acetamide] | < 0.1 | – | – | –
CCOc1cc(=O)[nH]cc1-c1ccc(CC(=O)Nc2ccc(C#N)c(C(F)(F)F)c2)cc1F [Example 7, N-(4-Cyano-3-(trifluoromethyl)phenyl)-2-(4-(4-ethoxy-6-oxo-1,6-dihydropyridin-3-yl)-3-fluorophenyl)acetamide] | < 0.1 | – | – | –
CCOc1cc(-c2ccc(CC(=O)Nc3ccc(C#N)c(C(F)(F)F)c3)c(F)c2)c[nH]c1=O [Example 9, N-(4-Cyano-3-(trifluoro-methyl)phenyl)-2-(4-(5-ethoxy-6-oxo-1,6-dihydro-pyridin-3-yl)-2-fluorophenyl)acetamide] | < 0.1 | – | – | –
CCOc1cc(=O)[nH]cc1-c1ccc(CC(=O)Nc2cnc(OCCN(C)C)c(C(F)(F)F)c2)c(F)c1 [Example 10, N-(6-(2-(Dimethylamino)ethoxy)-5-(trifluoromethyl)pyridin-3-yl)-2-(4-(4-ethoxy-6-oxo-1,6-dihydropyridin-3-yl)-2-fluorophenyl)acetamide dihydrochloride] | 0.1 to 0.5 | 0.5 to 10 | 0.5 to 10 | –
CCOc1cc(-c2ccc(CC(=O)Nc3cc(-n4cnc(C)c4)cc(C(F)(F)F)c3)c(F)c2)c[nH]c1=O [Example 11, 2-(4-(5-Ethoxy-6-oxo-1,6-dihydropyridin-3-yl)-2-fluorophenyl)-N-(3-(4-methyl-1H-imidazol-1-yl)-5-(trifluoromethyl)phenyl)acetamide hydrochloride] | < 0.1 | – | – | –
CCOc1cc(-c2ccc(CC(=O)Nc3ccc(CN(C)C)c(C(F)(F)F)c3)c(F)c2)c[nH]c1=O [Example 17, N-(4-((Dimethylamino)methyl)-3-(trifluoromethyl)phenyl)-2-(4-(5-ethoxy-6-oxo-1,6-dihydropyridin-3-yl)-2-fluorophenyl)acetamide hydrochloride] | < 0.1 | – | – | –
CCOc1cc(-c2ccc(CC(=O)Nc3cc(C(C)(C)C(F)(F)F)on3)c(F)c2)c[nH]c1=O [Example 19, 2-(4-(5-Ethoxy-6-oxo-1,6-dihydropyridin-3-yl)-2-fluorophenyl)-N-(5-(1,1,1-trifluoro-2-methylpropan-2-yl)isoxazol-3-yl)acetamide] | < 0.1 | – | – | –
CCOc1cc(-c2ccc(CC(=O)Nc3cc(F)ccc3F)c(F)c2)c[nH]c1=O [Example 22, N-(2,5-Difluorophenyl)-2-(4-(5-ethoxy-6-oxo-1,6-dihydropyridin-3-yl)-2-fluorophenyl)acetamide] | 0.5 to 10 | – | – | –
CCOc1cc(-c2ccc(CC(=O)Nc3cc(C(F)(F)F)cc(C(F)(F)F)c3)c(F)c2)c[nH]c1=O [Example 25] | < 0.1 | – | – | –
CCOc1cc(-c2ccc(CC(=O)Nc3cc(C(C)(C)C(F)(F)F)no3)c(F)c2)c[nH]c1=O [Example 28, 2-(4-(5-Ethoxy-6-oxo-1,6-dihydropyridin-3-yl)-2-fluorophenyl)-N-(3-(1,1,1-trifluoro-2-methylpropan-2-yl)isoxazol-5-yl)acetamide] | < 0.1 | < 0.1 | – | < 0.1
CCOc1cc(=O)[nH]cc1-c1ccc(CC(=O)Nc2cnc(C(C)(C)CO)c(C(F)(F)F)c2)c(F)c1 [Example 31, 2-(4-(4-Ethoxy-6-oxo-1,6-dihydropyridin-3-yl)-2-fluorophenyl)-N-(6-(1-hydroxy-2-methylpropan-2-yl)-5-(trifluoromethyl)pyridin-3-yl)acetamide] | < 0.1 | < 0.1 | – | < 0.1
CCOc1cc(=O)[nH]cc1-c1ccc(CC(=O)Nc2ccc(CC(C)(C)CO)c(C(F)(F)F)c2)cc1F [Example 32, 2-(4-(4-Ethoxy-6-oxo-1,6-dihydropyridin-3-yl)-3-fluorophenyl)-N-(4-(3-hydroxy-2,2-dimethylpropyl)-3-(trifluoromethyl)phenyl)acetamide] | < 0.1 | < 0.1 | – | < 0.1
CCOc1cc(-c2ccc(CC(=O)Nc3cc(-n4cc(C)cn4)cc(C(F)(F)F)c3)c(F)c2)c[nH]c1=O [Example 34, 2-(4-(5-ethoxy-6-oxo-1,6-dihydropyridin-3-yl)-2-fluorophenyl)-N-(3-(4-methyl-1H-pyrazol-1-yl)-5-(trifluoromethyl)phenyl)acetamide hydrochloride] | < 0.1 | 0.1 to 0.5 | 0.1 to 0.5 | –
CCOc1cc(-c2ccc(CC(=O)Nc3cc(-n4ccc(C)n4)cc(C(F)(F)F)c3)c(F)c2)c[nH]c1=O [Example 35, 2-(4-(5-ethoxy-6-oxo-1,6-dihydropyridin-3-yl)-2-fluorophenyl)-N-(3-(3-methyl-1H-pyrazol-1-yl)-5-(trifluoromethyl)phenyl)acetamide hydrochloride] | < 0.1 | < 0.1 | 0.1 to 0.5 | –
CCOc1cc(-c2ccc(CC(=O)Nc3cc(-c4cn[nH]c4)cc(C(F)(F)F)c3)c(F)c2)c[nH]c1=O [Example 36, N-(3-(1H-pyrazol-4-yl)-5-(trifluoromethyl)phenyl)-2-(4-(5-ethoxy-6-oxo-1,6-dihydropyridin-3-yl)-2-fluorophenyl)acetamide hydrochloride] | < 0.1 | < 0.1 | 0.1 to 0.5 | –
CCOc1cc(=O)[nH]cc1-c1ccc(CC(=O)Nc2ccc(C(C)(C)C(F)(F)F)nc2)c(F)c1 [Example 37, 2-(4-(4-ethoxy-6-oxo-1,6-dihydropyridin-3-yl)-2-fluorophenyl)-N-(6-(1,1,1-trifluoro-2-methylpropan-2-yl)pyridin-3-yl)acetamide hydrochloride] | < 0.1 | 0.1 to 0.5 | 0.5 to 10 | –
CCOc1cc(-c2ccc(CC(=O)Nc3cc(OCCN4CCOCC4)cc(C(F)(F)F)c3)c(F)c2)c[nH]c1=O [Example 39, 2-(4-(5-ethoxy-6-oxo-1,6-dihydropyridin-3-yl)-2-fluorophenyl)-N-(3-(2-morpholinoethoxy)-5-(trifluoromethyl)phenyl)acetamide] | < 0.1 | < 0.1 | – | 0.1 to 0.5
CCOc1cc(-c2ccc(CC(=O)Nc3cc(-c4nn[nH]n4)cc(C(F)(F)F)c3)c(F)c2)c[nH]c1=O [Example 44, N-(3-(2H-tetrazol-5-yl)-5-(trifluoromethyl)phenyl)-2-(4-(5-ethoxy-6-oxo-1,6-dihydropyridin-3-yl)-2-fluorophenyl)acetamide] | < 0.1 | – | – | –

Now from value to compound, other results behind:

IC50 [1] [µM] | Compound | IC50 [2] [µM] | IC50 (TT cells; Homo sapiens, TT) [µM] | IC50 (TT cells; [3]) [µM]
< 0.1 | CCOc1cc(-c2ccc(CC(=O)Nc3cnc(C(C)(C)O)c(C(F)(F)F)c3)c(F)c2)c[nH]c1=O [Example 1, 2-(4-(5-Ethoxy-6-oxo-1,6-dihydropyridin-3-yl)-2-fluorophenyl)-N-(6-(2-hydroxypropan-2-yl)-5-(trifluoromethyl)pyridin-3-yl)acetamide] | – | – | –
< 0.1 | CCOc1cc(-c2ccc(CC(=O)Nc3ccc(CC(C)(C)CO)c(C(F)(F)F)c3)c(F)c2)c[nH]c1=O [Example 5, 2-(4-(5-Ethoxy-6-oxo-1,6-dihydropyridin-3-yl)-2-fluorophenyl)-N-(4-(3-hydroxy-2,2-dimethylpropyl)-3-(trifluoromethyl)phenyl)acetamide] | – | – | –
< 0.1 | CCOc1cc(-c2ccc(CC(=O)Nc3ccc(OCCO)c(C(F)(F)F)c3)c(F)c2)c[nH]c1=O [Example 13, 2-(4-(5-Ethoxy-6-oxo-1,6-dihydropyridin-3-yl)-2-fluorophenyl)-N-(4-(2-hydroxyethoxy)-3-(trifluoromethyl)phenyl)acetamide] | – | – | –
0.5 to 10 | CCOc1cc(-c2ccc(CC(=O)Nc3cnc(CC#N)c(C(F)(F)F)c3)c(F)c2)c[nH]c1=O [Example 14, N-(6-(Cyanomethyl)-5-(trifluoromethyl)pyridin-3-yl)-2-(4-(5-ethoxy-6-oxo-1,6-dihydropyridin-3-yl)-2-fluorophenyl)acetamide hydrochloride] | – | – | –
< 0.1 | CCOc1cc(-c2ccc(CC(=O)Nc3ccc(Cl)c(C(F)(F)F)c3)c(F)c2)c[nH]c1=O [Example 16, N-(4-Chloro-3-(trifluoromethyl)phenyl)-2-(4-(5-ethoxy-6-oxo-1,6-dihydropyridin-3-yl)-2-fluorophenyl)acetamide] | – | – | –
0.1 to 0.5 | CCOc1cc(-c2ccc(CC(=O)Nc3ccc(Cl)c(Cl)c3)c(F)c2)c[nH]c1=O [Example 18, N-(3,4-Dichlorophenyl)-2-(4-(5-ethoxy-6-oxo-1,6-dihydropyridin-3-yl)-2-fluorophenyl)acetamide] | – | – | –
< 0.1 | CCOc1cc(-c2ccc(CC(=O)Nc3ccc(CN4CCN(CC)CC4)c(C(F)(F)F)c3)c(F)c2)c[nH]c1=O [Example 21, 2-(4-(5-Ethoxy-6-oxo-1,6-dihydropyridin-3-yl)-2-fluorophenyl)-N-(4-((4-ethylpiperazin-1-yl)methyl)-3-(trifluoromethyl)phenyl)acetamide, dihydrochloride] | < 0.1 | – | –
0.1 to 0.5 | CCOc1cc(-c2ccc(CC(=O)Nc3ccc(C(N)=O)c(C(F)(F)F)c3)c(F)c2)c[nH]c1=O [Example 23] | – | – | –
< 0.1 | CCOc1cc(-c2ccc(CC(=O)Nc3cc(C(F)(F)F)c(F)cc3F)c(F)c2)c[nH]c1=O [Example 24] | – | – | –

From patent publication US9789100B2, “Compounds as rearranged during transfection (RET) inhibitors” (GlaxoSmithKline Intellectual Property Development Limited, priority 2013, dated 2017)
